Laboratory results taken from patent publication US10131652B2, “Pyrimidinyloxy benzene derivatives as herbicides” (E. I. DU PONT DE NEMOURS AND COMPANY, priority 2014, dated 2018).
Where two headings read alike, the source gives them in different places.

Legend:
Assay in all cases: Test F pre-/postemergence plant response
Format in all cases: in vivo
[1] = tested on: Brazilian crabgrass (Digitaria horizontalis); settings: Digitaria horizontalis, scale 0 to 100, read-out: Plant response rating, Crabgrass, Brazil
How it was run: (§1)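 Herbicidal effect judged by eye against controls, scored 0–100 (complete control = 100). Applications: pre-emergence onto seeded silt loam, post-emergence onto 2–18 cm seedlings; greenhouse, 14–21 days.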

[2] = tested on: Italian ryegrass (Lolium multiflorum); settings: Lolium multiflorum, scale 0 to 100, read-out: Plant response rating, Ryegrass, Italian; for pest or weed control at 16 g/ha: 16 g ai/ha; for pest or weed control at 31 g/ha: 31 g ai/ha; for pest or weed control at 125 g/ha: 125 g ai/ha
How it was run: as §1

[3] = tested on: corn (Zea mays); settings: Zea mays, scale 0 to 100
How it was run: as §1

[4] = tested on: fall panicum (Panicum dichotomiflorum); settings: Panicum dichotomiflorum, scale 0 to 100, read-out: Plant response rating, Panicum, Fall
How it was run: as §1

[5] = tested on: field bindweed (Convolvulus arvensis); settings: Convolvulus arvensis, scale 0 to 100, read-out: Plant response rating, Field Bindweed
How it was run: as §1

[6] = tested on: goosegrass (Eleusine indica); settings: Eleusine indica, pre-emergence, scale 0 to 100, read-out: Plant response rating, Goosegrass
How it was run: as §1

[7] = tested on: hairy beggarticks (Bidens pilosa); settings: Bidens pilosa, scale 0 to 100, read-out: Plant response rating, Beggarticks
How it was run: as §1

[8] = tested on: kochia (Kochia scoparia); settings: Bassia scoparia, scale 0 to 100, read-out: Plant response rating, Kochia; for pest or weed control at 16 g/ha: 16 g ai/ha; for pest or weed control at 31 g/ha: 31 g ai/ha; for pest or weed control at 125 g/ha: 125 g ai/ha
How it was run: as §1

[9] = tested on: large (Lg) crabgrass (Digitaria sanguinalis); settings: Digitaria sanguinalis, pre-emergence, scale 0 to 100, read-out: Plant response rating, Crabgrass, Large
How it was run: as §1

[10] = tested on: nightshade (eastern black nightshade, Solanum ptycanthum); settings: Solanum, pre-emergence, scale 0 to 100, read-out: Plant response rating, Nightshade
How it was run: as §1

[11] = tested on: ragweed (common ragweed, Ambrosia elatior); settings: Ambrosia artemisiifolia, scale 0 to 100, read-out: Plant response rating, Ragweed
How it was run: as §1

[12] = tested on: soybean (Glycine max); settings: Glycine max, scale 0 to 100, read-out: Plant response rating, Soybean
How it was run: as §1

[13] = tested on: surinam grass (Brachiaria decumbens); settings: Urochloa decumbens, pre-emergence, scale 0 to 100, read-out: Plant response rating, Surinam Grass
How it was run: as §1

[14] = tested on: velvetleaf (Abutilon theophrasti); settings: Abutilon theophrasti, pre-emergence, scale 0 to 100, read-out: Plant response rating, Velvetleaf
How it was run: as §1

[15] = tested on: wild poinsettia (Euphorbia heterophylla); settings: Euphorbia heterophylla, scale 0 to 100, read-out: Plant response rating, Poinsettia, Wild
How it was run: as §1

[16] = tested on: yellow nutsedge (Cyperus esculentus); settings: Cyperus, pre-emergence, scale 0 to 100, read-out: Plant response rating, Nutsedge, Yellow
How it was run: as §1

[17] = post-emergence, 16 g ai/ha Postemergence
[18] = post-emergence, 31 g ai/ha Postemergence
[19] = post-emergence, 62 g ai/ha Postemergence
[20] = post-emergence, 125 g ai/ha Postemergence
[21] = pre-emergence, 16 g ai/ha Preemergence
[22] = pre-emergence, 31 g ai/ha Preemergence
[23] = pre-emergence, 62 g ai/ha Preemergence
[24] = pre-emergence, 125 g ai/ha Preemergence
[25] = post-emergence, 62 g ai/ha, Postemergence

Fc1cccc(Oc2ncc(Cl)cn2)c1-c1cc(C(F)F)no1 [Compound 144, 5-chloro-2-[2-[3-(difluoromethyl)-5-isoxazolyl]-3-fluorophenoxy]pyrimidine]
pest or weed control at 16 g/ha [1, 17]: 40% | pest or weed control at 31 g/ha [1, 18]: 50% | pest or weed control at 62 g/ha [1, 19]: 40% | pest or weed control at 125 g/ha [1, 20]: 55% | pest or weed control at 16 g/ha [1, 21]: 75% | pest or weed control at 31 g/ha [1, 22]: 95% | pest or weed control at 62 g/ha [1, 23]: 98% | pest or weed control at 125 g/ha [1, 24]: 100% | pest or weed control at 16 g/ha ([2]; post-emergence, Postemergence): 10% | pest or weed control at 31 g/ha ([2]; post-emergence, Postemergence): 20% | pest or weed control at 62 g/ha [2, 25]: 20% | pest or weed control at 125 g/ha ([2]; post-emergence, Postemergence): 40% | pest or weed control at 16 g/ha ([2]; pre-emergence, Preemergence): 0% | pest or weed control at 31 g/ha ([2]; pre-emergence, Preemergence): 0% | pest or weed control at 125 g/ha ([2]; pre-emergence, Preemergence): 100% | pest or weed control at 62 g/ha ([2]; pre-emergence, Preemergence): 40% | Corn plant response rating (crop injury, 0 = no effect, 100 = complete kill) at 16 g/ha [3, 17]: 10% | Corn plant response rating (crop injury, 0 = no effect, 100 = complete kill) at 31 g/ha [3, 18]: 5% | Corn plant response rating (crop injury, 0 = no effect, 100 = complete kill) at 62 g/ha [3, 19]: 10% | Corn plant response rating (crop injury, 0 = no effect, 100 = complete kill) at 125 g/ha [3, 20]: 10% | Corn plant response rating (crop injury, 0 = no effect, 100 = complete kill) at 16 g/ha [3, 21]: 0% | Corn plant response rating (crop injury, 0 = no effect, 100 = complete kill) at 31 g/ha [3, 22]: 0% | Corn plant response rating (crop injury, 0 = no effect, 100 = complete kill) at 62 g/ha [3, 23]: 40% | Corn plant response rating (crop injury, 0 = no effect, 100 = complete kill) at 125 g/ha [3, 24]: 35% | pest or weed control at 16 g/ha [4, 17]: 25% | pest or weed control at 31 g/ha [4, 18]: 30% | pest or weed control at 62 g/ha [4, 19]: 35% | pest or weed control at 125 g/ha [4, 20]: 60% | pest or weed control at 16 g/ha [4, 21]: 95% | pest or weed control at 31 g/ha [4, 22]: 100% | pest or weed control at 125 g/ha [4, 24]: 100% | pest or weed control at 62 g/ha ([4]; pre-emergence, Preemergence): 100% | pest or weed control at 16 g/ha [5, 17]: 70% | pest or weed control at 31 g/ha [5, 18]: 75% | pest or weed control at 62 g/ha [5, 19]: 80% | pest or weed control at 125 g/ha [5, 20]: 90% | pest or weed control at 16 g/ha [5, 21]: 40% | pest or weed control at 31 g/ha [5, 22]: 60% | pest or weed control at 62 g/ha [5, 23]: 65% | pest or weed control at 125 g/ha [5, 24]: 70% | pest or weed control at 16 g/ha ([6]; 16 g ai/ha Preemergence): 75% | pest or weed control at 31 g/ha ([6]; 31 g ai/ha Preemergence): 60% | pest or weed control at 125 g/ha ([6]; 125 g ai/ha Preemergence): 100% | pest or weed control at 62 g/ha ([6]; Preemergence): 95% | pest or weed control at 16 g/ha [7, 17]: 70% | pest or weed control at 31 g/ha [7, 18]: 60% | pest or weed control at 62 g/ha [7, 19]: 70% | pest or weed control at 125 g/ha [7, 20]: 75% | pest or weed control at 16 g/ha [7, 21]: 0% | pest or weed control at 31 g/ha [7, 22]: 0% | pest or weed control at 62 g/ha [7, 23]: 0% | pest or weed control at 125 g/ha [7, 24]: 0% | pest or weed control at 16 g/ha ([8]; post-emergence, Postemergence): 95% | pest or weed control at 31 g/ha ([8]; post-emergence, Postemergence): 95% | pest or weed control at 62 g/ha [8, 25]: 95% | pest or weed control at 125 g/ha ([8]; post-emergence, Postemergence): 95% | pest or weed control at 16 g/ha ([8]; pre-emergence, Preemergence): 98% | pest or weed control at 31 g/ha ([8]; pre-emergence, Preemergence): 100% | pest or weed control at 125 g/ha ([8]; pre-emergence, Preemergence): 100% | pest or weed control at 62 g/ha ([8]; pre-emergence, Preemergence): 100% | pest or weed control at 16 g/ha ([9]; 16 g ai/ha Preemergence): 80% | pest or weed control at 31 g/ha ([9]; 31 g ai/ha Preemergence): 100% | pest or weed control at 62 g/ha ([9]; 62 g ai/ha Preemergence): 100% | pest or weed control at 125 g/ha ([9]; 125 g ai/ha Preemergence): 100% | pest or weed control at 16 g/ha ([10]; 16 g ai/ha Preemergence): 98% | pest or weed control at 31 g/ha ([10]; 31 g ai/ha Preemergence): 98% | pest or weed control at 125 g/ha ([10]; 125 g ai/ha Preemergence): 100% | pest or weed control at 62 g/ha ([10]; Preemergence): 100% | pest or weed control at 16 g/ha [11, 17]: 50% | pest or weed control at 31 g/ha [11, 18]: 50% | pest or weed control at 62 g/ha [11, 19]: 85% | pest or weed control at 125 g/ha [11, 20]: 90% | pest or weed control at 16 g/ha [11, 21]: 0% | pest or weed control at 31 g/ha [11, 22]: 0% | pest or weed control at 125 g/ha [11, 24]: 85% | pest or weed control at 62 g/ha ([11]; pre-emergence, Preemergence): 95% | plant injury at 16 g/ha [12, 17]: 65% | plant injury at 31 g/ha [12, 18]: 95% | plant injury at 62 g/ha [12, 19]: 98% | plant injury at 125 g/ha [12, 20]: 95% | plant injury at 31 g/ha [12, 22]: 10% | plant injury at 125 g/ha [12, 24]: 75% | plant injury at 62 g/ha ([12]; pre-emergence, Preemergence): 40% | pest or weed control at 16 g/ha ([13]; 16 g ai/ha Preemergence): 0% | pest or weed control at 31 g/ha ([13]; 31 g ai/ha Preemergence): 75% | pest or weed control at 125 g/ha ([13]; 125 g ai/ha Preemergence): 80% | pest or weed control at 62 g/ha ([13]; Preemergence): 75% | pest or weed control at 16 g/ha ([14]; 16 g ai/ha Preemergence): 80% | pest or weed control at 31 g/ha ([14]; 31 g ai/ha Preemergence): 100% | pest or weed control at 125 g/ha ([14]; 125 g ai/ha Preemergence): 100% | pest or weed control at 62 g/ha ([14]; Preemergence): 100% | pest or weed control at 16 g/ha [15, 17]: 50% | pest or weed control at 31 g/ha [15, 18]: 50% | pest or weed control at 62 g/ha [15, 19]: 70% | pest or weed control at 125 g/ha [15, 20]: 65% | pest or weed control at 16 g/ha [15, 21]: 0% | pest or weed control at 31 g/ha [15, 22]: 0% | pest or weed control at 125 g/ha [15, 24]: 35% | pest or weed control at 62 g/ha ([15]; pre-emergence, Preemergence): 20% | pest or weed control at 16 g/ha ([16]; 16 g ai/ha Preemergence): 0% | pest or weed control at 31 g/ha ([16]; 31 g ai/ha Preemergence): 0% | pest or weed control at 125 g/ha ([16]; 125 g ai/ha Preemergence): 0% | pest or weed control at 62 g/ha ([16]; Preemergence): 0%
